The values below are quoted from earlier work in patent US20140248291A1, “Modulation of Cellular Migration” (THE UAB RESEARCH FOUNDATION, priority 2011, published 2014).

Data set [1] relates to B2 receptor. The note with it: cited from earlier work.
In data set [2] the target is T1, rat B2R (Rattus norvegicus, UniProt P25023).
T1 sequence (P25023 1-396): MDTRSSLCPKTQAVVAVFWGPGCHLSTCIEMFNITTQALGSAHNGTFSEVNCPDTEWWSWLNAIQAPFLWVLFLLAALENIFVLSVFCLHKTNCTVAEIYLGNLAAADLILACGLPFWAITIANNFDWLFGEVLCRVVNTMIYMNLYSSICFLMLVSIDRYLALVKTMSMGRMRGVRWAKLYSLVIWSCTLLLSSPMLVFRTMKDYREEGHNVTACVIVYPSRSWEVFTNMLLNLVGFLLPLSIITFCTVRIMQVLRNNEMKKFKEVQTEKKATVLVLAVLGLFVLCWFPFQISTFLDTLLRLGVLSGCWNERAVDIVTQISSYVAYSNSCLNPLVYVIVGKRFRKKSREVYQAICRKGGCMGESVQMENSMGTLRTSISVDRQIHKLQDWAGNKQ
The note with it: n=3, read-out: IC50, BK-induced [3H]-IP3 formation; cited from earlier work.

In data set [3] the test system is BK-induced hypotension and plasma extravasation. Particulars: in vivo; cited from earlier work.
Data set [4] addresses T2, BK receptor in guinea-pig ileum preparations (Cavia porcellus, UniProt O70526).
T2 construct: from tissue; host or cells: guinea-pig ileum preparations
T2 sequence (O70526 1-372): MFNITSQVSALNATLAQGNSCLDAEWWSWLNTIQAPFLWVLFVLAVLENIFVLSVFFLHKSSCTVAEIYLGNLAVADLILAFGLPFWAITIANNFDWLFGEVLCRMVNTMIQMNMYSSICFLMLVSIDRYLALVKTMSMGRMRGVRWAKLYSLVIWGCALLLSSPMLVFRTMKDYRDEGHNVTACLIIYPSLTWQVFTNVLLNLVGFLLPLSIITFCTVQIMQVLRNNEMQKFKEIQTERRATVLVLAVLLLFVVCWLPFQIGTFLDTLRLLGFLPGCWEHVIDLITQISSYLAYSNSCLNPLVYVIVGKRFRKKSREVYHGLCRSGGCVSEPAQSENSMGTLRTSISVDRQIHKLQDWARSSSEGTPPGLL
Particulars: read-out: K1 value, receptor binding; cited from earlier work.

By IC50 is commonly meant the concentration that gives 50% inhibition. Take `CN(C)CCN(C)CCNC(=O)[C@@H]1CCCN1S(=O)(=O)c1ccc(NNC(=S)NC(c2ccccc2)c2ccccc2)c([N+](=O)[O-])c1` [Bradyzide]: the Schild slope in data set [1] (45Ca efflux from NG108-15 cells) is 1.05. Further, the “pKB, inhibition of B2 receptor-induced 45Ca efflux” value in data set [1] (NG108-15 cells, n=5) is recorded as 8.0±0.16. The IC50 in data set [2] was 11.6 ± 1.4 nM. Besides, in data set [3], the BK-induced hypotension result was “blocks” and the BK-induced plasma extravasation entry is given as “blocks”.

Turning to `N=C(N)NCCCC(NC(=O)[C@H](N)CCCNC(=N)N)C(=O)N1CCC[C@H]1C(=O)N1C[C@H](O)C[C@H]1C(=O)NCC(=O)N[C@@H](Cc1cccs1)C(=O)N[C@@H](CO)C(=O)N1Cc2ccccc2C[C@@H]1C(=O)N1C2CCCCC2C[C@H]1C(=O)N[C@H](CCCNC(=N)N)C(=O)O` (stereo partly drawn) [HOE-140, D-Arg-[Hyp^3, Thi^5, D-Tic^7, Oic^8]bradykinin], the Ki in data set [4] is 0.798 nM.
